Measured values reported in patent US20040197333A1, “Use of TGF-beta antagonists to inhibit tumor cell formation or progression” (Cornell Research Foundation, Inc., priority 2000, published 2004).

Test system: A-549 cells
Test: Scanning electron microscopy of cell morphology (invasive phenotype)
Assay type: cell-based, human
Details: 2ngm^−1 recombinant TGF-β1 protein
Source text: Scanning electron microscopy. […] Cells were fixed with PBS, pH 7.4, containing 2.0% glutaraldehyde, and processed as previously described (Ref 17). Samples were examined using a JEOL 25SIII electron microscope.
A-549 cells express functional receptors for TGF-β, and their growth and functions are regulated by TGF-β (refs. 7 and 8). The experiments with A-549 cells were established ex vivo to avoid any confounding effects of CsA-associated inhibition of in vivo immune surveillance mechanism(s).

recombinant TGF-β1 protein: recombinant TGF-β1 protein added to A-549 cells
morphological alterations in A-549 cells: induced morphological alterations in A-549 cells that were similar to those elicited by CsA
